ChEMBL document CHEMBL1201862, “PubChem BioAssay data set” (2004)
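96-well plates; 48 h exposure; 5 concentrations. Endpoints by linear interpolation between flanking doses. Not reached: highest tested concentration assigned. Here, GI50 denotes the concentration required for 50% inhibition of growth.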 The source made the active and inactive calls. Rule as the data show it: active = GI50 up to about 1.1 µM and inactive = higher.

Key:
Assay in all cases: NCI anticancer screen, dose series, 48 h
[1] = system: SNB-19
[2] = system: SNB-75
[3] = system: OVCAR-8
[4] = system: HCT-15
[5] = system: EKVX
[6] = system: OVCAR-5
[7] = system: Malme-3M
[8] = system: NCI-H460
[9] = system: NCI-H23
[10] = system: 786-0
[11] = system: OVCAR-3
[12] = system: HCC 2998
[13] = system: K562
[14] = system: KM-20L2
[15] = system: M14
[16] = system: UO-31
[17] = system: HT-29
[18] = system: OVCAR-4
[19] = system: HOP-62
[20] = system: SNB-78
[21] = system: SF-295
[22] = system: NCI-H226
[23] = system: NCI-H522
[24] = system: A549
[25] = system: SW-620
[26] = system: HCT-116
[27] = system: A498
[28] = system: SF-268
[29] = system: DLD-1
[30] = system: RXF 631
[31] = system: M19-MEL
[32] = system: SK-MEL-5
[33] = system: DMS-273
[34] = system: LOX IMVI
[35] = system: RPMI-8226
[36] = system: CAKI-1
[37] = system: LXFL 529
[38] = system: SK-OV-3
[39] = system: HOP-18
[40] = system: U-251
[41] = system: KM12
[42] = system: HL-60
[43] = system: TK-10
[44] = system: UACC-62
[45] = system: COLO 205
[46] = system: SK-MEL-2
[47] = system: UACC-257
[48] = system: XF498
[49] = system: MOLT-4
[50] = system: RXF 393
[51] = system: ACHN
[52] = system: CCRF-CEM
[53] = system: IGROV-1
[54] = system: SN12C
[55] = system: SF-539
[56] = system: T47D
[57] = system: MDA-N
[58] = system: SR
[59] = system: MDA-MB-435
[60] = system: NCI/ADR-RES
[61] = system: DU-145
[62] = system: MDA-MB-231
[63] = system: PC-3
[64] = system: HOP-92
[65] = system: MCF7
[66] = system: BT-549
[67] = system: SK-MEL-28
[68] = system: Hs-578T
[69] = system: DMS-114

COC(=O)C1=C(CO)C2C=CC1C2 (configuration not stated)
GI50 [1]: > 100 µM (inactive)
GI50 [2]: > 100 µM (inactive)
GI50 [3]: > 100 µM (inactive)
GI50 [4]: > 100 µM
GI50 [5]: > 100 µM (inactive)
GI50 [6]: > 100 µM (inactive)
GI50 [7]: > 100 µM (inactive)
GI50 [8]: > 100 µM (inactive)
GI50 [9]: > 100 µM (inactive)
GI50 [10]: > 100 µM (inactive)
GI50 [11]: > 100 µM (inactive)
GI50 [12]: > 100 µM (inactive)
GI50 [13]: > 100 µM (inactive)
GI50 [14]: > 100 µM (inactive)
GI50 [15]: > 100 µM (inactive)
GI50 [16]: > 100 µM (inactive)
GI50 [17]: > 100 µM (inactive)
GI50 [18]: > 100 µM (inactive)
GI50 [19]: > 100 µM (inactive)
GI50 [20]: > 100 µM (inactive)
GI50 [21]: > 100 µM (inactive)
GI50 [22]: > 100 µM (inactive)
GI50 [23]: > 100 µM (inactive)
GI50 [24]: > 100 µM (inactive)
GI50 [25]: > 100 µM (inactive)
GI50 [26]: > 100 µM (inactive)
GI50 [27]: > 100 µM (inactive)
GI50 [28]: > 100 µM (inactive)
GI50 [29]: > 100 µM (inactive)
GI50 [30]: > 100 µM (inactive)
GI50 [31]: > 100 µM (inactive)
GI50 [32]: > 100 µM (inactive)
GI50 [33]: > 100 µM (inactive)
GI50 [34]: > 100 µM (inactive)
GI50 [35]: > 100 µM (inactive)
GI50 [36]: > 100 µM (inactive)
GI50 [37]: > 100 µM (inactive)
GI50 [38]: > 100 µM (inactive)
GI50 [39]: > 100 µM (inactive)
GI50 [40]: > 100 µM (inactive)
GI50 [41]: > 100 µM (inactive)
GI50 [42]: > 100 µM (inactive)
GI50 [43]: > 100 µM (inactive)
GI50 [44]: > 100 µM (inactive)
GI50 [45]: > 100 µM (inactive)
GI50 [46]: > 100 µM (inactive)
GI50 [47]: > 100 µM (inactive)
GI50 [48]: > 100 µM (inactive)
GI50 [49]: > 100 µM (inactive)
GI50 [50]: > 100 µM (inactive)
GI50 [51]: > 100 µM (inactive)
GI50 [52]: > 100 µM (inactive)
GI50 [53]: > 100 µM (inactive)
GI50 [54]: > 100 µM (inactive)
GI50 [55]: > 100 µM (inactive)

O=C1c2ccccc2C(=O)c2c(NCCCNCCO)ccc(NCCCNCCO)c21
GI50 [1]: 5.11 µM (inactive)
GI50 [2]: 7.13 µM (inactive)
GI50 [3]: 7.74 µM (inactive)
GI50 [56]: 8.91 µM (inactive)
GI50 [4]: 12.9 µM
GI50 [5]: 11.8 µM (inactive)
GI50 [6]: 8.91 µM (inactive)
GI50 [7]: 13.9 µM (inactive)
GI50 [8]: 3.8 µM (inactive)
GI50 [57]: 7.48 µM (inactive)
GI50 [9]: 10.7 µM (inactive)
GI50 [10]: 4.79 µM (inactive)
GI50 [11]: 5.71 µM (inactive)
GI50 [12]: 5.37 µM (inactive)
GI50 [13]: 2.64 µM (inactive)
GI50 [14]: 5.51 µM (inactive)
GI50 [15]: 9.68 µM (inactive)
GI50 [16]: 13.1 µM (inactive)
GI50 [17]: 4.82 µM (inactive)
GI50 [58]: 3.65 µM (inactive)
GI50 [18]: 9.82 µM (inactive)
GI50 [19]: 5.35 µM (inactive)
GI50 [20]: 8.32 µM (inactive)
GI50 [59]: 12.6 µM (inactive)
GI50 [21]: 7.33 µM (inactive)
GI50 [60]: 28.5 µM (inactive)
GI50 [22]: 1.61 µM (inactive)
GI50 [61]: 10.2 µM (inactive)
GI50 [23]: 3.03 µM (inactive)
GI50 [62]: 11.6 µM (inactive)
GI50 [24]: 11.5 µM (inactive)
GI50 [25]: 5.13 µM (inactive)
GI50 [26]: 4.33 µM (inactive)
GI50 [27]: 15.9 µM (inactive)
GI50 [28]: 4.82 µM (inactive)
GI50 [30]: 17.8 µM (inactive)
GI50 [31]: 4.93 µM (inactive)
GI50 [32]: 13.4 µM (inactive)
GI50 [63]: 7.67 µM (inactive)
GI50 [34]: 3.5 µM (inactive)
GI50 [35]: 10.6 µM (inactive)
GI50 [64]: 10.7 µM (inactive)
GI50 [36]: 10 µM (inactive)
GI50 [65]: 2.88 µM (inactive)
GI50 [37]: 3.85 µM (inactive)
GI50 [38]: 14.6 µM (inactive)
GI50 [39]: 5.01 µM (inactive)
GI50 [66]: 14.5 µM (inactive)
GI50 [40]: 5.36 µM (inactive)
GI50 [41]: 5.57 µM (inactive)
GI50 [67]: 12 µM (inactive)
GI50 [42]: 8.97 µM (inactive)
GI50 [43]: 16 µM (inactive)
GI50 [44]: 9.42 µM (inactive)
GI50 [45]: 5.85 µM (inactive)
GI50 [46]: 13.2 µM (inactive)
GI50 [47]: 15.2 µM (inactive)
GI50 [48]: 4.67 µM (inactive)
GI50 [68]: 5.52 µM (inactive)
GI50 [69]: 6.01 µM (inactive)
GI50 [49]: 3 µM (inactive)
GI50 [50]: 4.69 µM (inactive)
GI50 [51]: 4.51 µM (inactive)
GI50 [52]: 3.08 µM (inactive)
GI50 [53]: 15.7 µM (inactive)
GI50 [54]: 4 µM (inactive)
GI50 [55]: 4.24 µM (inactive)
